Results published in US7312219B2, “Heteroaromatic inhibitors of fructose 1,6-bisphosphatase” (Metabasis Therapeutics, Inc., priority 1998, dated 2007).

Tests used:
[1] = system: Zucker Diabetic Fatty rats; test: Blood Glucose Lowering in Zucker Diabetic Fatty Rats, Oral; format: in vivo, rat
Procedure: Zucker Diabetic Fatty rats were purchased from Genetics Models Inc. (Indiannapolis, Ind.) at 8 weeks of age and fed the recommended Purina 5008 diet. At the age of 12 weeks, 16 animals with fed blood glucose levels between 500 and 700 mg/dl were selected and divided into two groups (n=8) with statistically equivalent average blood glucose levels. […] The drug solution for this treatment was prepared at 25 mg/ml in deionized water and adjusted to neutrality by dropwise addition of 5 N NaOH. A second group of rats (n=8) was dosed orally with saline, in parallel. Blood glucose was measured in each rat just prior to drug or saline administration and 6 hours post administration. A HemoCue blood glucose analyzer (HemoCue Inc., Mission Viejo, Calif.) was used for these measurements according to the manufacturer's instructions.

[2] = Analysis of Drug Levels and Liver Accumulation in Rats; format: in vivo, rat; conditions: Sprague-Dawley, rat, iv; fasted rats, 10 mgs/kg i.v., one hour post injection, plasma; read-out: Plasma Conc.
Procedure: The compound was dissolved in water and the solution adjusted to neutrality with NaOH. One hour post injection rats were anesthetized with halothane and a liver biopsy (approx. 1 g) was taken as well as a blood sample (2 ml) from the posterior vena cava. A heparin flushed syringe and needle were used for blood collection. The liver sample was immediately homogenized in ice-cold 10% perchloric acid (3 ml), centrifuged, and the supernatant neutralized with ⅓rd volume of 3 M KOH/3 M KHCO3. […] Plasma was prepared from the blood sample by centrifugation and extracted by addition of methanol to 60% (v/v). The methanolic extract was clarified by centrifugation and filtration and then analyzed by HPLC as described above.

Fasted Rat = test: Glucose Lowering Following Oral Administration to the Fasted Rat; format: in vivo; conditions: oral gavage, 18-hour fasted rats, dose 30 mg/kg, time point 2 h, relative to saline controls
Procedure: Compounds were administered by oral gavage to 18-hour fasted, Sprague Dawley rats (250–300 g, n =3/4/group). Phosphonic acids were prepared in deionized water, and the solution adjusted to neutrality with solidum hydroxide. Prodrugs were dissolved in polyethylene glycol (mw 400). […] The table below indicates the maximum glucose lowering achieved relative to control animals dosed with saline.

[3] = system: Zucker Diabetic Fatty rats; test: Blood Glucose Lowering in Zucker Diabetic Fatty Rats, Intravenous; format: in vivo, rat; conditions: six hour time point
Procedure: 12-week old Zucker Diabetic Fatty rats (Genetics Models Inc., Indiannapolis, Ind.) maintained on Purina 5008 diet were instrumented with tail artery and tail vein catethers at 8 am on the day of the study. Food was removed for the remainder of the day. […] Blood samples were obtained from the tail artery catheter at the start of the infusions, and at hourly intervals thereafter. Glucose was measured in the samples by means of a HemoCue analyzer (HemoCue Inc., Mission Viejo, Calif.) according to the manufacturer's instructions.

Fasted Rats = test: Blood Glucose Lowering Following Intravenous Administration to Fasted Rats; format: in vivo, rat; conditions: 18 h fasted Sprague Dawley rats, relative to saline-treated controls
Procedure: Inhibitors were disolved in water and the solution adjusted to neutrality with NaOH. Blood samples were obtained from the tail vein of conscious animals just prior to injection and after 1 hour. Blood glucose was measured using a HemoCue Inc. glucose analyzer according to the instructions of the manufacturer.

db/db Mouse = test: Hepatic Glycogen Levels in the db/db Mouse; format: in vivo; conditions: db/db mice
Procedure: Db/db mice and their nondiabetic db/+ littermates were obtained at 8 weeks of age (Jackson Labs., Bar Harbor, Me.) and enrolled in the study at 11 weeks of age. […] Db/+ mice were treated with saline according to the same schedule. At 6 pm, mice were anesthetized with halothane and a small section of liver (0.5 g) was removed by the freeze-clamping technique. The liver samples were fully frozen by subsequent immersion in liquid nitrogen and then homogenized in 5 volumes of cold 0.6 N perchloric acid. Glycogen content was determined enzymatically in the homogenates by the method of Keppler and Decker (Keppler D and Decker K in Methods of Enzymatic Analysis, Bergmeyer, H U, Ed., Verlag Chemie International, Deerfield Beach, Fla., 1974).

[4] = system: Gluconeogenesis in Zucker Diabetic Fatty Rats; test: Inhibition of Gluconeogenesis by FBPase Inhibitor in Zucker Diabetic Fatty Rats (14C-bicarbonate to 14C-glucose); format: in vivo, rat; conditions: after 6-hour infusion at 3 mg/kg/h, n=3/group
Procedure: Following a 6-hour infusion of 3.26 at 3 mg/kg/h or saline to Zucker Diabetic Fatty rats (n=3/group) as described in Example K, a bolus of ^14C-bicarbonate (40 μCi/100 g body weight) was administered via the tail vein catheter. 20 minutes later, a blood sample (0.6 mL) was taken via the tail artery. Blood (0.5 ml) was diluted into 6 mL deionized water and protein precipitated by addition of 1 mL zinc sulfate (0.3 N) and 1 mL barium hydroxide (0.3 N). The mixture was centrifuged (20 minutes, 1000×g) and 5 mL of the resulting supernatant was then combined with 1 g of a mixed bed ion exchange resin (1 part AG 50W-X8, 100–200 mesh, hydrogen form, and 2 parts AG 1-X8, 100–200 mesh, acetate form) to separate ^14-C-bicabonate from ^14C-glucose. The slurry was shaken at room temperature for four hours and then allowed to settle. An aliquot of the supernatant (0.5 mL) was then counted in 5 mL scintillation cocktail. The percentage inhibition of gluconeogenesis in drug-treated rats was calculated by dividing the average cpm of ^14C-glucose in samples from drug-treated animals by those from saline-injected animals.

concentration at 1 h [2]: 56 ± 2 µM
Compound: CSc1sc(N)nc1-c1ccc(P(=O)(O)O)o1 [Compound 3.26, 2-Amino-5-methylthio-4-[2-(5-phosphono)furanyl]thiazole]
lowering of blood glucose relative to saline treated controls ([1]; 100 mg/kg oral, 6 hours post administration, p=0.01): 15.4% | Blood Glucose, 7 pm ([1]; 6 hours post 100 mg/kg oral gavage, n=8): 497 ± 14 mg/dL | Blood Glucose, 1 pm ([1]; just prior to administration of 100 mg/kg by oral gavage, n=8): 573 ± 26 mg/dL | % Glucose Lowering (maximum) (Fasted Rat): 70% | decrease in blood glucose relative to saline-infused controls ([3]; 3 mg/kg/h tail vein infusion): 29% | decrease in blood glucose relative to saline-infused controls ([3]; 30 mg/kg/h tail vein infusion): 39% | blood glucose lowering (Fasted Rats; 3 mg/kg intravenous): 52% | inhibition in vivo at 10 mg/kg (Fasted Rats; Rattus norvegicus, iv, 10 mg/kg i.v., 1 hour): 73% | liver glycogen stores (db/db Mouse; 100 mg/kg oral at 8 am and 2 pm, liver taken 6 pm): reduction of glycogen stores to levels that approached those of nondiabetic db/+ mice | Liver Glycogen (db/db Mouse; 100 mg/kg orally at 8 am and 2 pm, Evening, 6 pm): 34.4 ± 7.1 (n = 3) μmol glucose/g | 14C-Glucose production inhibited [4]: 75%
